Results published in the supplement of paper PMC11127212.

What was measured:
[1] = collision cross section (TWIMS, N2) of ion [M-H]-; higher = larger gas-phase ion cross section; conditions: ionization: ESI negative; LC: HILIC, pH 9.0 ammonium acetate
Procedure: (§1)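 Reference standards (20-100 uM) were separated by HILIC UPLC (BEH HILIC, 45 °C): acidic pH 3.0 ammonium formate/formic acid for ESI+ and basic pH 9.0 ammonium acetate/ammonia for ESI-. They were analysed on a Synapt G2-Si traveling-wave IMS-QTOF with nitrogen drift gas (WH 30 V; WV 800 m/s in ESI+ and 1000 m/s in ESI-).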

[2] = retention time on BEH HILIC column (20 min gradient, 0.4 mL/min); higher = later elution; conditions: LC: HILIC
Procedure: as §1

[3] = collision cross section (TWIMS, N2) of ion [M+H]+; higher = larger gas-phase ion cross section; conditions: ionization: ESI positive; LC: HILIC, pH 3.0 ammonium formate
Procedure: as §1

[4] = ionization: ESI negative, pH 9.0 ammonium acetate
[5] = ionization: ESI positive, pH 3.0 ammonium formate

Compound | collision cross section [1] | retention time on BEH HILIC column [2, 4] | collision cross section [3] | retention time on BEH HILIC column [2, 5]
NCCc1ccc(O)c(O)c1 [Dopamine] | 130.85 Å² | 4.35 min | 139.55 Å² | 4.6 min
O=C(O)CCC(=O)C(=O)O [a-ketoglutaric acid] | 122.3 Å² | 5.51 min | – | –
N[C@@H](Cc1c[nH]c2ccccc12)C(=O)O [L-tryptophan] | 148.33 Å² | 5.86 min | 147.76 Å² | 5.77 min
CCC(C)CCC(=O)O (configuration not stated) [4-methylhexanoic acid] | 134.11 Å² | 0.88 min | 137.57 Å² | 0.99 min
N[C@@H](CCC(=O)N[C@@H](CSSC[C@H](NC(=O)CC[C@H](N)C(=O)O)C(=O)NCC(=O)O)C(=O)NCC(=O)O)C(=O)O [Oxidized glutathione] | 216.04 Å² | 12.5 min | 226.92 Å² | 12.6 min
NCCCCNCCCN [Spermidine] | – | – | 135.15 Å² | 12.7 min
O=P(O)(O)OC[C@H]1O[C@](O)(COP(=O)(O)O)[C@@H](O)[C@@H]1O [Fructose 1,6-bisphosphate] | 159.01 Å² | 12.9 min | – | –
Nc1ccccc1C(=O)O [2-aminobenzoic acid] | 126.13 Å² | 0.97 min | 124.05 Å² | 0.82 min
NC(=O)c1cccnc1 [Niacinamide] | – | – | 123.01 Å² | 1.21 min
CCCCC/C=C\C/C=C\C/C=C\C/C=C\CCCC(=O)O [Arachidonic acid] | 186.98 Å² | 0.72 min | 178.98 Å² | 0.77 min
O=C(O)[C@H]1O[C@H](OP(=O)(O)OP(=O)(O)OC[C@H]2O[C@@H](n3ccc(=O)[nH]c3=O)[C@H](O)[C@@H]2O)[C@H](O)[C@@H](O)[C@@H]1O [UDPGA] | 209.99 Å² | 10.4 min | – | –
NCCS(=O)(=O)O [Taurine] | 119.39 Å² | 6.14 min | 126.38 Å² | 6 min
N[C@@H](CCC(=O)N[C@@H](CS)C(=O)NCC(=O)O)C(=O)O [Glutathione] | 166.5 Å² | 9.37 min | 166.01 Å² | 9.46 min
Nc1ncnc2c1ncn2[C@@H]1O[C@H](CO)[C@@H](O)[C@H]1O [Adenosine] | 155.95 Å² | 2.36 min | 155.89 Å² | 2.24 min
CC/C=C\C/C=C\C/C=C\C/C=C\C/C=C\CCCC(=O)O [Eicosapentaenoic acid] | 190.11 Å² | 0.72 min | 177.23 Å² | 0.75 min
O=c1[nH]c(=O)c2[nH]c(=O)[nH]c2[nH]1 [Uric acid] | 125.59 Å² | 5.34 min | 133.36 Å² | 3.02 min
CC(C)CC(=O)O [Isovaleric acid] | 123.48 Å² | 0.9 min | – | –
Nc1ncnc2c1ncn2[C@@H]1O[C@@H]2COP(=O)(O)O[C@H]2[C@H]1O [cAMP] | 171.56 Å² | 6.8 min | 174.12 Å² | 6.85 min
O=P(O)(O)O[C@H]1O[C@H](CO)[C@H](O)[C@H](O)[C@H]1O [Galactose 1-phosphate] | 147.62 Å² | 11.8 min | – | –

Compound | collision cross section [1] | retention time on BEH HILIC column [2, 4] | collision cross section [3] | retention time on BEH HILIC column [2, 5]
CC(O)C(C)C(=O)O (configuration not stated) [3-hydroxy-2-methylbutanoic acid] | 124.78 Å² | 1.1 min | – | –
O=P(O)(O)OC[C@H]1O[C@H](O)[C@H](O)[C@@H]1O [D-ribose 5-phosphate] | 139.6 Å² | 9.22 min | – | –
NCCCNCCCCNCCCN [Spermine] | – | – | 150.86 Å² | 13.9 min
CCCCCCCC(=O)O [Caprylic acid] | 141.36 Å² | 0.77 min | – | –
CC(C)C(=O)O [Isobutyric acid] | 118.84 Å² | 3.29 min | – | –
CCCCC(=O)O [Valeric acid] | 123.48 Å² | 3.22 min | – | –
CCCC(=O)O [Butyric acid] | 122.31 Å² | 3.72 min | – | –
O=P(O)(O)O[C@H]1O[C@H](CO)[C@@H](O)[C@H](O)[C@H]1O [Glucose 1-phosphate] | 147.62 Å² | 9.95 min | – | –
CCCCC(C)C(=O)O (configuration not stated) [2-methylhexanoic acid] | 134.11 Å² | 0.8 min | – | –
NCCc1c[nH]c2ccc(O)cc12 [Serotonin] | 137.88 Å² | 3.73 min | – | –
CC(=O)N[C@H]1[C@@H](OP(=O)(O)OP(=O)(O)OC[C@H]2O[C@@H](n3ccc(=O)[nH]c3=O)[C@H](O)[C@@H]2O)O[C@H](CO)[C@@H](O)[C@@H]1O [UDPAG] | 219.62 Å² | 9.42 min | – | –
O=C(O)CC(O)(CC(=O)O)C(=O)O [Citric acid] | 128.76 Å² | 11.1 min | – | –
Nc1ncnc2c1ncn2[C@@H]1O[C@H](COP(=O)(O)OP(=O)(O)O)[C@@H](O)[C@H]1O [ADP] | 183.67 Å² | 12.6 min | – | –
Nc1ncnc2c1ncn2[C@@H]1O[C@H](COP(=O)(O)OP(=O)(O)OP(=O)(O)O)[C@@H](O)[C@H]1O [ATP] | 190.77 Å² | 12.3 min | – | –
C[N+](C)(C)C[C@H](O)CC(=O)O [L-carnitine] | – | – | 137.38 Å² | 8.64 min
CCCCCCCCCCCCCC(=O)O [Myristic acid] | 168.91 Å² | 0.73 min | – | –
N[C@@H]1[C@@H](O)[C@H](O)[C@@H](COP(=O)(O)O)O[C@@H]1O [Glucosamine 6-phosphate] | 150.31 Å² | 12.3 min | – | –
O=P(O)(O)OC[C@H]1O[C@@](O)(CO)[C@@H](O)[C@H](O)[C@@H]1O [D-sedoheptulose 7-phosphate] | 150.55 Å² | 9.82 min | – | –
CCC(C)(O)C(=O)O (configuration not stated) [2-hydroxy-2-methyl butyric acid] | 124.78 Å² | 1.55 min | – | –

Other lines, results leading:

collision cross section [1] | retention time on BEH HILIC column [2, 4] | collision cross section [3] | retention time on BEH HILIC column [2, 5] | Compound
120.3 Å² | 11.5 min | – | – | N[C@@H](CC(=O)O)C(=O)O [L-aspartic acid]
119.85 Å² | 4.91 min | – | – | O=C(O)C(O)CCO (configuration not stated) [2,4-dihydroxybutyric acid]
121.74 Å² | 7.05 min | – | – | CC[C@H](N)C(=O)O [2-aminobutyric acid]
107.41 Å² | 0.97 min | – | – | C[C@@H](O)CC(=O)O [3-hydroxybutyric acid]
142.48 Å² | 11.2 min | 144 Å² | 11.3 min | N[C@@H](CCSC[C@H](N)C(=O)O)C(=O)O [L-cystathionine]
125.39 Å² | 8.21 min | – | – | N[C@@H](CCC(=O)O)C(=O)O [L-glutamic acid]
135.18 Å² | 9.07 min | 137.33 Å² | 8.89 min | NC(=O)NCCC[C@H](N)C(=O)O [Citrulline]
123.48 Å² | 8.32 min | – | – | NC(=O)C[C@H](N)C(=O)O [L-asparagine]
118.21 Å² | 7.75 min | – | – | N[C@@H](CO)C(=O)O [L-serine]
118.44 Å² | 1.5 min | – | – | O=C(O)CCC(=O)O [Succinic acid]
117.06 Å² | 7.42 min | – | – | C[C@H](N)C(=O)O [L-alanine]
119.98 Å² | 1.95 min | – | – | CC[C@H](O)C(=O)O [2-hydroxybutyric acid]
121.94 Å² | 1.28 min | – | – | C[C@@H](CC(=O)O)C(=O)O [Methylsuccinic acid]
116.91 Å² | 2.86 min | – | – | C[C@H](O)C(=O)O [Lactic acid]
118.53 Å² | 13 min | – | – | O=C(O)C[C@H](O)C(=O)O [Malic acid]
123.21 Å² | 1.03 min | – | – | CCC(CO)C(=O)O (configuration not stated) [2-ethylhydracrylic acid]
128.21 Å² | 1.93 min | – | – | CC(C)CC(=O)C(=O)O [Ketoleucine]
121.54 Å² | 7.5 min | – | – | C[C@@H](O)[C@H](N)C(=O)O [L-threonine]
126.71 Å² | 1.93 min | – | – | CC[C@H](C)C(=O)C(=O)O [3-methyl-2-oxopentanoic acid]
